# Non-standard residues stand in square brackets, D forms with d. Residues, ends and D or L forms follow the SMILES beside them. No end group written: not given here.
# Columns and labels:
# Type in all cases: cell-based
# [1] = tested on: Staphylococcus aureus (ATCC 6538); experiment: Disinfection Efficacy antimicrobial assay (ISO 14729), S. aureus; settings: for biocidal effect on S. aureus (in words): 100 ug/mL
# Description: (§1) Peptides were tested using a conventional Disinfection Efficacy antimicrobial assay (ISO 14729), commonly used in evaluating biocidal efficacy of preservatives for use in contact lens care solutions. Briefly, a known concentration of organisms are inoculated into the test solution, and allowed to incubate for a given amount of time, after which they are neutralized to inactivate the preservative. Samples are serially diluted and plated in duplicate onto petri plates onto which growth medium is poured. The plates are incubated at 35° C. (bacteria) or 25° C. (yeast and molds) for 48 hours. The average number of colony forming units is determined on countable plates (the dilution at which between 30 to 300 cfu/plate are observed, except when colonies are observed only on the −1 dilution plates). The log reduction resulting from exposure to the test solution is calculated based on the growth of positive controls plated simultaneously. Recovery controls, to confirm that the test solution is neutralized, and viability controls are also plated.
# (§2) Method: The Disinfection Efficacy test was used with the following organisms: Staphylococcus aureus (ATCC 6538), Pseudomonas aeruginosa (ATCC 9027), Serratia marcesens (ATCC 13880), Candida albicans (ATCC 10231), and Fusarium solani (ATCC 36031). The peptides were diluted in water at a concentration of 100 ug/mL (adjusted for purity). Organism cultures were prepared to result in an inoculum concentration between 10^7 and 10^8 cfu/mL. The test solutions were inoculated for a 1 hour and a 3 hour exposure period, neutralized with DEB with 0.1% SLS added, and plated in duplicate.
# (§3) Method: The Disinfection Efficacy test was used as in experiment 2 using Staphylococcus aureus and Pseudomonas aeruginosa. The peptides were diluted in water at concentrations of 100, 33.3, 10, 3.33, and 1 ug/mL. The test solutions were inoculated for 1 hour, neutralized, and plated in duplicate.
# [2] = tested on: Pseudomonas aeruginosa (ATCC 9027); experiment: Disinfection Efficacy antimicrobial assay (ISO 14729), P. aeruginosa; settings: for biocidal effect on P. aeruginosa (in words): 100 ug/mL; for lowest concentration resulting in complete kill of P. aeruginosa: 1 hour, tested at 100, 33.3, 10, 3.33 and 1 ug/mL
# Description: as §1, §2, §3
# [3] = tested on: Serratia marcesens (ATCC 13880); experiment: Disinfection Efficacy antimicrobial assay (ISO 14729), S. marcescens; settings: Exp. 2, 1 hour exposure; for biocidal effect on S. marcescens (in words): 100 ug/mL
# Description: as §1, §2
# [4] = tested on: Candida albicans (ATCC 10231); experiment: Disinfection Efficacy antimicrobial assay (ISO 14729), C. albicans; settings: Exp. 2, 1 hour exposure; for biocidal effect on C. albicans (in words): 100 ug/mL
# Description: as §1
# Method: Candida albicans (ATCC 10231) stock cultures were incubated and prepared to result in cell suspensions containing between 10^7 and 10^8 cfu/mL. The Disinfection Efficacy test, as described above, was used, with the following modification: Since the standard Dey-Engley broth used to neutralize preservatives was not necessarily expected to neutralize the peptide, 0.1% sodium laurel sulfate (SLS) was added to the neutralization solution. Controls confirmed that this was effective in neutralizing the peptide test solution.
# as §2, with “The test solutions were inoculated for a 1 hour and a 3 hour exposure period, neutralized with DEB with 0.1% SLS added, and plated in duplicate.” left out
# [5] = tested on: Fusarium solani (ATCC 36031); experiment: Disinfection Efficacy antimicrobial assay (ISO 14729), F. solani; settings: Exp. 2, 1 hour exposure; for biocidal effect on F. solani (in words): 100 ug/mL
# Description: as §1, §2
# [6] = tested on: Staphylococcus aureus, Pseudomonas aeruginosa, Serratia marcesens, Candida albicans, Fusarium solani; experiment: Disinfection Efficacy test, all 5 organisms of Experiment 2; settings: Exp. 2; 100 ug/mL, one hour exposure
# Description: as §1
# Method: The Disinfection Efficacy test was used with the following organisms: Staphylococcus aureus (ATCC 6538), Pseudomonas aeruginosa (ATCC 9027), Serratia marcesens (ATCC 13880), Candida albicans (ATCC 10231), and Fusarium solani (ATCC 36031). The peptides were diluted in water at a concentration of 100 ug/mL (adjusted for purity). […]
# [7] = Exp. 3, Conc. 3.33 μg/mL, T = 1 hr
# [8] = Exp. 3, Conc. 33 μg/mL, T = 1 hr
# [9] = Exp. 3, Conc. 100 μg/mL, T = 1 hr
# [10] = Exp. 2, 100 ug/mL in water, 1 hour exposure
Compound,"biocidal effect on S. aureus (in words) ([1]; Exp. 2, 1 hour exposure)","biocidal effect on P. aeruginosa (in words) ([2]; Exp. 2, 1 hour exposure)",biocidal effect on S. marcescens (in words) [3],biocidal effect on C. albicans (in words) [4],biocidal effect on F. solani (in words) [5],lowest concentration resulting in complete kill of P. aeruginosa ([2]; Exp. 3),"average cfu/mL [2, 7]","average cfu/mL [2, 8]","average cfu/mL [2, 9]",other results
C[C@@H](N)C(=O)N[C@H](CCCCN)C(=O)N[C@H](CCCNC(=N)N)C(=O)N[C@H](Cc1c[nH]cn1)C(=O)N[C@H](Cc1c[nH]cn1)C(=O)NCC(=O)N[C@H](Cc1ccc(O)cc1)C(=O)N[C@H](CCCCN)C(=O)N[C@H](CCCNC(=N)N)C(=O)N[C@H](CCCCN)C(=O)N[C@H](Cc1ccccc1)C(=O)N[C@H](Cc1c[nH]cn1)C(N)=O [P-113D] (H-[dA][dK][dR][dH][dH]G[dY][dK][dR][dK][dF][dH]-NH2; N-terminus and C-terminus assumed),no effect,effective,no effect,effective,effective,,,,,
AKRHHGYKRKFH-NH2 (C-terminus assumed) [P-113],no effect,effective,no effect,effective,effective,3.33 µg/mL,5.00E+00 cfu/mL,0.00E+00 cfu/mL,0.00E+00 cfu/mL,"effectiveness against S. aureus (in words) ([1]; Exp. 3, 1 to 100 ug/mL, 1 hour): not effective"
FAKKFAKKFKKFAKKFAKFAFAF [D2A21],,,,,,1 µg/mL,0.00E+00 cfu/mL,0.00E+00 cfu/mL,0.00E+00 cfu/mL,"average cfu/mL [1, 10]: 0.00E+00 cfu/mL; concentration achieving complete kill of S. aureus ([1]; Exp. 3, 1 hour, tested at 100, 33.3, 10, 3.33 and 1 ug/mL): 3.33 µg/mL; average cfu/mL [1, 7]: 0.00E+00 cfu/mL; average cfu/mL [1, 8]: 0.00E+00 cfu/mL; average cfu/mL [1, 9]: 0.00E+00 cfu/mL; average cfu/mL [2, 10]: 0.00E+00 cfu/mL; average cfu/mL ([2]; Exp. 3, Conc. 1 μg/mL, T = 1 hr): 0.00E+00 cfu/mL; average cfu/mL ([2]; Exp. 3, Conc. 10 μg/mL, T = 1 hr): 0.00E+00 cfu/mL; average cfu/mL ([3]; 100 ug/mL in water): 0.00E+00 cfu/mL; average cfu/mL ([4]; 100 ug/mL in water): 0.00E+00 cfu/mL; average cfu/mL ([5]; 100 ug/mL in water): 0.00E+00 cfu/mL; kill of all 5 organisms (in words) [6]: complete kill"

# From patent US20080167246A1, “Ophthalmic and Contact Lens Solutions Containing Peptides as Preservative” (BioConcept Laboratories, priority 2003, published 2008)
